Consider two compounds from patent publication EP0144519A1, “2',4'-Difluoro-4-hydroxy-(1,1'-diphenyl)-3-carboxylic derivatives of N-acetylcysteine and of S-carboxymethylcysteine having anti-inflammatory and mucolytic activity, process for their preparation and related pharmaceutical compositions” (priority 1983, dated 1985).

Series [1] has as its system carrageen induced paw oedema. Description: carrageen induced paw oedema in the rat (anti-inflammatory activity). The class given is in vivo. The settings on record: administered 1h before the carrageen, 10 animals. An excerpt:
(§1) The pharmaco-toxicological properties of the compounds '1 have been studied in comparison with diflunisal and with N-acetylcysteine, in order to evaluate the pharmacological and toxicological properties of the compounds of the invention with respect to those of the starting compounds. The results relating to the compound 5 (see scheme I) are hereinafter reported, only for illustrative and not for limiting purpose.

A further series relates to ulcers. Description: gastrolesivity, ulcers after oral administration in the rat. It counts as in vivo. The settings on record: equimolar doses. An excerpt:
(§2) Other toxicological features of the compound 5 have been also studied, more particularly the histolesivity (intramuscular injection in the sacrospinalis muscle of rabbit) and the gastrolesivity (ulcers after oral administration in the rat).

In series [2] the test system is phenylquinone induced writhing. Description: phenylquinone induced writhing in the mouse (analgesic activity). It counts as in vivo. Particulars: 10 animals.
Excerpt: as §1
(In general: An intraperitoneal irritant provokes the stretching counted in writhing tests.)

The nature of series [3]: plasma levels of diflunisal after oral administration in the rat (pharmacokinetics). The class given is in vivo. Particulars: 40 umol/kg, oral dose 0.04 mmol/kg. From the text:
Lastly, some pharmacokinetic properties of the compound 5 have been investigated, by measuring the plasma levels of diflunisal after oral administration of 0.04 mmol/kg p.o. in the rat, this dose being close to the therapeutical one. [table]

The next series deals with sacrospinalis muscle. Description: histolesivity, intramuscular injection in the sacrospinalis muscle of rabbit. The class given is in vivo. Particulars: equimolar doses.
Excerpt: as §2

Series [4] in a line: water solubility (observation at preparation). It counts as physicochemical. On the procedure:
3.95 g of S-[2',4'-difluoro-4-hydroxy-(1,1'-diphenyl)-3-carbonyl]-N-acetyl-L-cysteine (5) are added with 2.92 g of lysine base as a 50% aqueous solution, 8 ml of water and 20 ml of acetone; the mixture is stirred until a clear solution is obtained and filtered. Under stirring the mixture is diluted up to 100 ml with acetone, cooled to -10°C for a night, filtered and dried in a stove at 50-60°C under vacuum. A white, water soluble product is obtained having melting point of 179-184°C, with a yield of 92%.

Structures can show the parent of a compound that is named as a salt.

Broadly, the Cmax is the peak of the concentration-time curve. On to `O=C(O)c1cc(-c2ccc(F)cc2F)ccc1O` [Diflunisal, 2',4'-difluoro-4-hydroxy-(1,1'-diphenyl)-3-carboxylic acid], for which the “INIBITION % (medium value ± s.e.) anti-inflammatory activity (a)” value amounted to 29.6 ± 5.4% in series [1] (0.040 mmol kg^-1 p.o.), 50.3 ± 2.0% in series [1] (0.120 mmol kg^-1 p.o.) and 53.9 ± 4.7% in series [1] (0.400 mmol kg^-1 p.o.). Also, the gastrolesivity result in the series with ulcers is on record as “high”. Also, the “INIBITION % (medium value ± s.e.) analgesic activity (b)” value in series [2] (0.040 mmol kg^-1 p.o.) amounted to 9.5 ± 6.2%; in series [2] (0.120 mmol kg^-1 p.o.), 16.6 ± 15.9%; in series [2] (0.400 mmol kg^-1 p.o.), 39.6 ± 9.8%. Further, in series [3], the Cmax worked out at 39700 ng/mL. Also, in series [3] (read-out: o → oo), the AUC(0-inf) is 345 µg·h/mL. For the same compound, in series [3] (read-out: tC max), the Tmax was 3 h. Moreover, the half-life in series [3] (read-out: t½ (converted)) was 4.2 h. In the series on sacrospinalis muscle, the histolesivity result was “high”.

In the case of `CC(=O)N[C@@H](CSC(=O)c1cc(-c2ccc(F)cc2F)ccc1O)C(=O)O` [Example 8, S-/ 2',4'-difluoro-4-hydroxy-(1,1'-diphenyl)-3-carbonyl]-N-acetyl-L-cysteine lysine salt], in series [4], the solubility in water entry is “water soluble”.
